# Results: ChEMBL document CHEMBL3992560, “Synthesis and pharmacological evaluation of pyrazolo[1,5-a]pyrimidin-7(4H)-one derivatives as potential GABAA-R ligands” (Bioorg Med Chem, 2017)
# Calls of active or inactive are those of the source. The calls are words filed in the database; no cut-off is given here.
# Columns and labels:
# Bos taurus = species on record: Bos taurus; assay: Displacement of [3H]Ro15-1788 from GABA-A receptor benzodiazepine site in bovine brain cerebral cortex membranes at 10 uM relative to control; settings: Membrane
# [1] = Displacement of [3H]Ro15-1788 from GABA-A receptor benzodiazepine site in bovine brain cerebral cortex membranes; parameters: species or system Bos taurus, Membrane
# Mus musculus [2] = assay: Anxiolytic-like activity in CD-1 mouse assessed as time spent in light area at 1 mg/kg, po administered 30 mins prior to test by light/dark exploration test relative to control; type: functional
# Mus musculus [3] = assay: Anxiolytic-like activity in CD-1 mouse assessed as number of transfer from one compartment to other at 1 mg/kg, po administered 30 mins prior to test by light/dark exploration test; type: functional
# Rattus norvegicus [4] = assay: Anxiolytic-like activity in Sprague-Dawley rat assessed as total number of arm entries at 1 mg/kg, po administered 30 mins prior to test by elevated […] maze test; type: functional
# Rattus norvegicus [5] = assay: Anxiolytic-like activity in Sprague-Dawley rat assessed as time spent in open arms at 1 mg/kg, po administered 30 mins prior to test by elevated […] maze test relative to control; type: functional
# Mus musculus [6] = assay: Anxiolytic-like activity in CD-1 mouse assessed as increase in time spent in light area at 1 to 30 mg/kg, po administered 30 mins prior to test by light/dark exploration test; type: functional, organism-based
# Mus musculus [7] = assay: Anxiolytic-like activity in CD-1 mouse assessed as time spent in light area at 10 mg/kg, po administered 30 mins prior to test by light/dark exploration test relative to control; type: functional
# Mus musculus [8] = assay: Anxiolytic-like activity in CD-1 mouse assessed as time spent in light area at 3 mg/kg, po administered 30 mins prior to test by light/dark exploration test relative to control; type: functional
# Mus musculus [9] = assay: Anxiolytic-like activity in CD-1 mouse assessed as time spent in light area at 30 mg/kg, po administered 30 mins prior to test by light/dark exploration test relative to control; type: functional
# Mus musculus [10] = assay: Anxiolytic-like activity in CD-1 mouse assessed as time spent in light area at 10 mg/kg, po administered 30 mins prior to test followed by flumazenil injection by light/dark exploration test relative to control; type: functional
# Mus musculus [11] = assay: Anxiolytic-like activity in CD-1 mouse assessed as number of transfer from one compartment to other at 10 mg/kg, po administered 30 mins prior to test by light/dark exploration test; type: functional
# Mus musculus [12] = assay: Anxiolytic-like activity in CD-1 mouse assessed as number of transfer from one compartment to other at 3 mg/kg, po administered 30 mins prior to test by light/dark exploration test; type: functional
# Mus musculus [13] = assay: Anxiolytic-like activity in CD-1 mouse assessed as number of transfer from one compartment to other at 30 mg/kg, po administered 30 mins prior to test by light/dark exploration test; type: functional
# Mus musculus [14] = assay: Anxiolytic-like activity in CD-1 mouse assessed as number of transfer from one compartment to other at 30 mg/kg, po administered 30 mins prior to test followed by flumazenil injection by light/dark exploration test; type: functional
# Rattus norvegicus [15] = assay: Anxiolytic-like activity in Sprague-Dawley rat assessed as total number of arm entries at 10 mg/kg, po administered 30 mins prior to test by elevated […] maze test; type: functional
# Rattus norvegicus [16] = assay: Anxiolytic-like activity in Sprague-Dawley rat assessed as time spent in open arms at 10 mg/kg, po administered 30 mins prior to test by elevated […] maze test relative to control; type: functional
# [17] = target: T1, GABA-A receptor; alpha-1/beta-2/gamma-2 (Homo sapiens, UniProt P14867+P18507+P47870); assay: Displacement of [3H]Ro15-1788 from GABA-Aalpha1beta2gamma2 receptor (unknown origin) expressed in cell membranes after 1 hr
# T1 sequence (P14867 whole entry): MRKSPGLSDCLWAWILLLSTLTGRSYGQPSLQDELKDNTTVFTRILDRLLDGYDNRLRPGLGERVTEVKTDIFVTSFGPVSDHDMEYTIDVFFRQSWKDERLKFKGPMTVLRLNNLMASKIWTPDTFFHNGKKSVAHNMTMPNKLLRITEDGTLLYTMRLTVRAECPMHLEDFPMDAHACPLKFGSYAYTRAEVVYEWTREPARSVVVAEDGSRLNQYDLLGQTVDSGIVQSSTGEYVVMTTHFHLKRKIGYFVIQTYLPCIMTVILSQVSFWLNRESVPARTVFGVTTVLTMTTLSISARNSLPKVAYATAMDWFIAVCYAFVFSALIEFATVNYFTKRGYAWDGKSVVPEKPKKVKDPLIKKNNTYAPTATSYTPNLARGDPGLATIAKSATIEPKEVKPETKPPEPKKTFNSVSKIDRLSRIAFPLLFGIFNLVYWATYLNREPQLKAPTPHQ
# T1 sequence (P47870 whole entry): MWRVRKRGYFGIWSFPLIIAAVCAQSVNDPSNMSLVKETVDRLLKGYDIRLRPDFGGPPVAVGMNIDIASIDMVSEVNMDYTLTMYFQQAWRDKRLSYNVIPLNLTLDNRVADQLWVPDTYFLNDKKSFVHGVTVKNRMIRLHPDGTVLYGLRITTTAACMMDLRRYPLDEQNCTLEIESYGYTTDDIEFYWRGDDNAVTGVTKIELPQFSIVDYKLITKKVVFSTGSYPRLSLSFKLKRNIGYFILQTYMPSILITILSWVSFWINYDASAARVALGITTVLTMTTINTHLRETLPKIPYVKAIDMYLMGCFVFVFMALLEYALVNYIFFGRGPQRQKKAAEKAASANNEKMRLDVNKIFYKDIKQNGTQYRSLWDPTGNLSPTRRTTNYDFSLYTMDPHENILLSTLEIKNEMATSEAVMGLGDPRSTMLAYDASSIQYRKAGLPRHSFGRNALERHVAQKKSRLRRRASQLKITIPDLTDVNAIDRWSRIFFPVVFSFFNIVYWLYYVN
# T1 sequence (P18507 whole entry): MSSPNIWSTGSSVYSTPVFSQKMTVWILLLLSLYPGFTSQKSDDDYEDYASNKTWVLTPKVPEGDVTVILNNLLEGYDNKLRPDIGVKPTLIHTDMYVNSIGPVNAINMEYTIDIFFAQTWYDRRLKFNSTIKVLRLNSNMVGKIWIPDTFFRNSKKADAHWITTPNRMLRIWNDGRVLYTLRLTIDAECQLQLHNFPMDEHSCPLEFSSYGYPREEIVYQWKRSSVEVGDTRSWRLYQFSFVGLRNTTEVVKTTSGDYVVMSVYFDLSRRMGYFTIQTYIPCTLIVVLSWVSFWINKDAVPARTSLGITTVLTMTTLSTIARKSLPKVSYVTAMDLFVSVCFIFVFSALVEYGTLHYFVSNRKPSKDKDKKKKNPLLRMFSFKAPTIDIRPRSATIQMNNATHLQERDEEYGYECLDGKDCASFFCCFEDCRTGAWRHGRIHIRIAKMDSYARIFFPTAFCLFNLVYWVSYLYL
# [18] = target: GABA A receptor alpha-2/beta-2/gamma-2 (Homo sapiens) (UniProt P47870+P18507+P47869); assay: Displacement of [3H]Ro15-1788 from GABA-Aalpha2beta2gamma2 receptor (unknown origin) expressed in cell membranes after 1 hr relative to control
# [19] = target: GABA-A receptor; alpha-5/beta-3/gamma-2 (Homo sapiens) (UniProt P18507+P28472+P31644); assay: Displacement of [3H]Ro15-1788 from GABA-Aalpha5beta3gamma2 receptor (unknown origin) expressed in cell membranes after 1 hr relative to control
SMILES,inhibition (Bos taurus) [%],Ki ([1]; read-out: Ki) [nM],further results
COc1cccc(-c2cnn3c(=O)c(-c4ccccc4)c[nH]c23)c1,> 80,192,–
O=c1c(Cc2ccccc2)c[nH]c2c(-c3cccc4ccccc34)cnn12,> 80,112,–
O=c1c(Cc2ccccc2)c[nH]c2c(-c3ccsc3)cnn12,< 80,–,Ki [1]: Not Active
O=c1c(Cc2ccccc2)c[nH]c2c(-c3ccc4ccccc4c3)cnn12,> 80,73.3,–
Cc1cccc(-c2cnn3c(=O)c(Cc4ccccc4)c[nH]c23)c1,> 80,18,–
COc1cccc(-c2cnn3c(=O)c(Cc4ccccc4)c[nH]c23)c1,> 80,49.6,–
CN1C(=O)CN=C(c2ccccc2)c2cc(Cl)ccc21 [DIAZEPAM],–,10,Activity (Mus musculus [2]): 171.6%; Activity (Mus musculus [3]): 8.3; Activity (Rattus norvegicus [4]): 10.5; Activity (Rattus norvegicus [5]): 34.9%
O=c1c(-c2ccccc2)c[nH]c2c(-c3cccs3)cnn12,> 80,215,–
O=c1c(-c2ccccc2)c[nH]c2c(-c3ccccc3)cnn12,> 80,368,–
O=c1c(-c2ccccc2)c[nH]c2c(-c3ccc4ccccc4c3)cnn12,< 80,–,Ki [1]: Not Active
O=c1c(Cc2ccccc2)c[nH]c2c(-c3cccs3)cnn12,> 80,502,–
O=c1c(-c2ccccc2)c[nH]c2c(-c3ccsc3)cnn12,> 80,72.2,–
O=c1c(Cc2ccccc2)c[nH]c2c(-c3cccc(Br)c3)cnn12,> 80,29.9,–
O=c1c(-c2ccccc2)c[nH]c2c(-c3cccc(C(F)(F)F)c3)cnn12,> 80,118,–
O=c1c(-c2ccccc2)c[nH]c2c(-c3cccnc3)cnn12,> 80,58.4,–
O=c1c(Cc2ccccc2)c[nH]c2c(-c3cccc(C(F)(F)F)c3)cnn12,> 80,22.3,–
O=c1c(Cc2ccccc2)c[nH]c2c(-c3cccnc3)cnn12,> 80,73.3,–
O=c1c(-c2ccccc2)c[nH]c2c(-c3cccc4ccccc34)cnn12,> 80,375,–
O=c1c(-c2ccccc2)c[nH]c2c(-c3ccccn3)cnn12,> 80,211,Activity (Mus musculus [6]): inactive
O=c1c(-c2ccccc2)c[nH]c2c(Cc3ccccc3)cnn12,< 80,–,Ki [1]: Not Active
O=c1c(Cc2ccccc2)c[nH]c2c(-c3ccccn3)cnn12,> 80,29.8,Activity (Mus musculus [7]): 165.4%; Activity (Mus musculus [2]): 113.9%; Activity (Mus musculus [8]): 145.2%; Activity (Mus musculus [9]): 164.4%; Activity (Mus musculus [10]): 120.08%; Activity (Mus musculus [11]): 23.9; Activity (Mus musculus [3]): 15; Activity (Mus musculus [12]): 21.3; Activity (Mus musculus [13]): 28.9; Activity (Mus musculus [14]): 12.8; Activity (Rattus norvegicus [15]): 10.5; Activity (Rattus norvegicus [16]): 29.6%; Ki [17]: 183 nM; inhibition [18]: 14%; inhibition [19]: 31%
Cc1cccc(-c2cnn3c(=O)c(-c4ccccc4)c[nH]c23)c1,> 80,87,–
O=c1c(-c2ccccc2)c[nH]c2c(-c3cccc(Br)c3)cnn12,> 80,39.3,–
O=c1c(-c2ccccc2)c[nH]c2c(-c3ccc(F)cc3)cnn12,> 80,132,–
O=c1c(Cc2ccccc2)c[nH]c2c(-c3ccc(F)cc3)cnn12,> 80,34.6,–
O=c1c(Cc2ccccc2)c[nH]c2c(-c3ccccc3)cnn12,> 80,132,–
O=c1c(Cc2ccccc2)c[nH]c2c(Cc3ccccc3)cnn12,< 80,–,Ki [1]: Not Active
